Assay results reported in publication PMC13014258 (JACS Au, 2026).

Test system: CTSB
Assay: CTSB inhibitor study, CTSB channel fluorescence of the probes in cells
Type: cell-based
Conditions: HeLa cells, CA-074 500 nM 15 min, n = 30

CCCNC(=O)[C@H]1O[C@@H]1C(=O)N[C@H](C(=O)N1CCC[C@H]1C(=O)O)[C@@H](C)CC [CTSB inhibitor]
CTSB (blue) channel intensities of MSS2 and MSS3 in inhibitor-treated cells at resting state (then MSS2/MSS3 10 μM 5 min): significantly reduced | CTSB (blue) channel intensities of MSS4 and MSS5 in inhibitor-treated cells at resting state (then MSS4/MSS5 10 μM 5 min): significantly reduced
